Reference: patent US20250213555A1, “SUBSTITUTED TETRAHYDROFURAN ANALOGS AS MODULATORS OF SODIUM CHANNELS” (VERTEX PHARMACEUTICALS INCORPORATED, priority 2021, published 2025)

Target: human Nav 1.8 (Homo sapiens, UniProt Q9Y5Y9)
Assay: E-VIPR assay detecting and measuring Nav inhibition properties
Type: cell-based
Settings: HEK cells expressing a truncated form of human Nav 1.8; compound numbers without "*" (not marked as run in the presence of human serum); read-out: measured IC50 value in the E-VIPR Assay
In short: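 Nav inhibition was read by E-VIPR: cells were electrically stimulated while coumarin/oxonol FRET emissions were recorded. Cells were HEK expressing a truncated human Nav 1.8 and co-transduced with KIR2.1, and were assayed in 25% final human serum.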

Sequence of human Nav 1.8 (Q9Y5Y9 126-399 limits assumed): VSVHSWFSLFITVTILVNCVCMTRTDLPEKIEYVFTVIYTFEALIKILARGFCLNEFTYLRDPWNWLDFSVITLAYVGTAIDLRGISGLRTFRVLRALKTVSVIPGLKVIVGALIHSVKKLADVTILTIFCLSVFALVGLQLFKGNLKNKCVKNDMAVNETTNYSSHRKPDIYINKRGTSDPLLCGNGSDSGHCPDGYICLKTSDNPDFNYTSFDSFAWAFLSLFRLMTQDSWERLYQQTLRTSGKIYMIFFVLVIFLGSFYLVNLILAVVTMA
Sequence of human Nav 1.8 (Q9Y5Y9 660-890 limits assumed): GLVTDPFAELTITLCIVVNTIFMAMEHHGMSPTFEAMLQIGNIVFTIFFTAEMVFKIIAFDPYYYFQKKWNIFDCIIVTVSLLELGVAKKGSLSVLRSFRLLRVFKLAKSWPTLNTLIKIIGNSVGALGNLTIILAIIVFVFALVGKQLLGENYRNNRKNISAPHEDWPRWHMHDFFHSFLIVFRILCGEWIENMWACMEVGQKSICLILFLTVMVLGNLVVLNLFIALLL
Sequence of human Nav 1.8 (Q9Y5Y9 1148-1722 limits assumed): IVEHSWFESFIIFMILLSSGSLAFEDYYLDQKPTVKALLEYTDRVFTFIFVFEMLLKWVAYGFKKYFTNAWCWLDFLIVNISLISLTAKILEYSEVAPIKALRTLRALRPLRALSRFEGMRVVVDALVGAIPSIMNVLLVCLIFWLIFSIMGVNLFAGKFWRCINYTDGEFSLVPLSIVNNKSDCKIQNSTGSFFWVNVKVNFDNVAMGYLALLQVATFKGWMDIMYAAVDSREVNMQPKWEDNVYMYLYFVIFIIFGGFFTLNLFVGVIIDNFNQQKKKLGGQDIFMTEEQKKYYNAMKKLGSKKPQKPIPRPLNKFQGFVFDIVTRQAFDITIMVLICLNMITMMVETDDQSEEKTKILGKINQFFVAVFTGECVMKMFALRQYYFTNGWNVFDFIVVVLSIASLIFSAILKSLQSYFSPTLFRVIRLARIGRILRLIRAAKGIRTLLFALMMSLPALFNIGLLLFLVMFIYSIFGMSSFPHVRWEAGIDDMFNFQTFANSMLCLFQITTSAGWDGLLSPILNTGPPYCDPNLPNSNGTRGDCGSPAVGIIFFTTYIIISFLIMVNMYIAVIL

SMILES	IC50 [nM]
COc1c([C@H]2[C@H](C(=O)Nc3ccnc(C(=O)NC[C@]4(C)CCCN4)c3)O[C@@](C)(C(F)(F)F)[C@H]2C)ccc(F)c1F [Compound 233, 4-((2R,3S,4S,5R)-3-(3,4-difluoro-2-methoxyphenyl)-4,5-dimethyl-5-(trifluoromethyl)tetrahydrofuran-2-carboxamido)-N-(((S)-2-methylpyrrolidin-2-yl)methyl)picolinamide]	10 to 100
COc1c([C@H]2[C@H](C(=O)Nc3ccnc(C(=O)N4C[C@@H](N)[C@H](OC)C4)c3)O[C@@](C)(C(F)(F)F)[C@H]2C)ccc(F)c1F [Compound 263, (2R,3S,4S,5R)-N-(2-((3R,4R)-3-amino-4-methoxypyrrolidine-1-carbonyl)pyridin-4-yl)-3-(3,4-difluoro-2-methoxyphenyl)-4,5-dimethyl-5-(trifluoromethyl)tetrahydrofuran-2-carboxamide]	< 10
COc1c([C@H]2[C@H](C(=O)Nc3ccnc(C(=O)NC4CNC4)c3)O[C@@](C)(C(F)(F)F)[C@H]2C)ccc(F)c1F [Compound 236, N-(azetidin-3-yl)-4-((2R,3S,4S,5R)-3-(3,4-difluoro-2-methoxyphenyl)-4,5-dimethyl-5-(trifluoromethyl)tetrahydrofuran-2-carboxamido)picolinamide]	10 to 100
C[C@H]1[C@@H](c2ccc(F)c(F)c2OCCN2C[C@@H]3C[C@H]2CO3)[C@H](C(=O)Nc2ccnc(C(N)=O)c2)O[C@@]1(C)C(F)(F)F (relative stereo) [Compound 46, rel-4-((2R*,3S*,4S*,5R*)-3-(2-(2-((1S,4S)-2-oxa-5-azabicyclo[2.2.1]heptan-5-yl)ethoxy)-3,4-difluorophenyl)-4,5-dimethyl-5-(trifluoromethyl)tetrahydrofuran-2-carboxamido)picolinamide]	< 10
COc1c([C@H]2[C@H](C(=O)Nc3ccnc(C(=O)N[C@H]4CCNC4)c3)O[C@@](C)(C(F)(F)F)[C@H]2C)ccc(F)c1F [Compound 238, 4-((2R,3S,4S,5R)-3-(3,4-difluoro-2-methoxyphenyl)-4,5-dimethyl-5-(trifluoromethyl)tetrahydrofuran-2-carboxamido)-N-((S)-pyrrolidin-3-yl)picolinamide]	< 10
COc1c([C@H]2[C@H](C(=O)Nc3ccnc(C(=O)N4C[C@@H]5C[C@H]4CN5)c3)O[C@@](C)(C(F)(F)F)[C@H]2C)ccc(F)c1F [Compound 240, (2R,3S,4S,5R)-N-(2-((1S,4S)-2,5-diazabicyclo[2.2.1]heptane-2-carbonyl)pyridin-4-yl)-3-(3,4-difluoro-2-methoxyphenyl)-4,5-dimethyl-5-(trifluoromethyl)tetrahydrofuran-2-carboxamide]	< 10
CO[C@H](CO)COc1c([C@H]2[C@H](C(=O)Nc3ccnc(C(N)=O)c3)O[C@@](C)(C(F)(F)F)[C@H]2C)ccc(F)c1F (single isomer, unassigned) [Compound 161, rel-4-((2R*,3S*,4S*,5R*)-3-(3,4-difluoro-2-(3-hydroxy-2-methoxypropoxy)phenyl)-4,5-dimethyl-5-(trifluoromethyl)tetrahydrofuran-2-carboxamido)picolinamide]	10 to 100
CC(=O)COc1c([C@H]2[C@H](C(=O)Nc3ccnc(C(N)=O)c3)O[C@@](C)(C(F)(F)F)[C@H]2C)ccc(F)c1F [Compound 79, 4-((2R,3S,4S,5R)-3-(3,4-difluoro-2-(2-oxopropoxy)phenyl)-4,5-dimethyl-5-(trifluoromethyl)tetrahydrofuran-2-carboxamido)picolinamide]	10 to 100
COc1c([C@H]2[C@H](C(=O)Nc3cc(C(=O)N4CCNCC4)ncc3C)O[C@@](C)(C(F)(F)F)[C@H]2C)ccc(F)c1F [Compound 15, (2R,3S,4S,5R)-3-(3,4-difluoro-2-methoxy-phenyl)-4,5-dimethyl-N-[5-methyl-2-(piperazine-1-carbonyl)-4-pyridyl]-5-(trifluoromethyl)tetrahydrofuran-2-carboxamide]	< 10
COc1c([C@H]2[C@H](C(=O)Nc3ccnc(C(=O)N[C@H]4CNC[C@@H]4OC)c3)O[C@@](C)(C(F)(F)F)[C@H]2C)ccc(F)c1F [Compound 242, 4-((2R,3S,4S,5R)-3-(3,4-difluoro-2-methoxyphenyl)-4,5-dimethyl-5-(trifluoromethyl)tetrahydrofuran-2-carboxamido)-N-((3S,4S)-4-methoxypyrrolidin-3-yl)picolinamide]	10 to 100
COc1c([C@H]2[C@H](C(=O)Nc3ccnc(C(=O)N4CC5CC(C4)O5)c3)O[C@@](C)(C(F)(F)F)[C@H]2C)ccc(F)c1F [Compound 218, (2R,3S,4S,5R)-N-(2-(6-oxa-3-azabicyclo[3.1.1]heptane-3-carbonyl)pyridin-4-yl)-3-(3,4-difluoro-2-methoxyphenyl)-4,5-dimethyl-5-(trifluoromethyl)tetrahydrofuran-2-carboxamide]	< 10
COc1c([C@H]2[C@H](C(=O)Nc3ccnc(C(=O)N[C@@H]4CNC[C@H](C)C4)c3)O[C@@](C)(C(F)(F)F)[C@H]2C)ccc(F)c1F [Compound 252, 4-((2R,3S,4S,5R)-3-(3,4-difluoro-2-methoxyphenyl)-4,5-dimethyl-5-(trifluoromethyl)tetrahydrofuran-2-carboxamido)-N-((3S,5R)-5-methylpiperidin-3-yl)picolinamide]	10 to 100
COc1c([C@H]2[C@H](C(=O)Nc3ccnc(C(N)=O)c3)O[C@@](C)(C(F)(F)F)[C@H]2C)ccc(O)c1F [Compound 206, 4-((2R,3S,4S,5R)-3-(3-fluoro-4-hydroxy-2-methoxyphenyl)-4,5-dimethyl-5-(trifluoromethyl)tetrahydrofuran-2-carboxamido) picolinamide]	10 to 100
COc1c([C@H]2[C@H](C(=O)Nc3cc(C(=O)N4CCNCC4)ncc3F)O[C@@](C)(C(F)(F)F)[C@H]2C)ccc(F)c1F [Compound 16, (2R,3S,4S,5R)-3-(3,4-difluoro-2-methoxy-phenyl)-N-[5-fluoro-2-(piperazine-1-carbonyl)-4-pyridyl]-4,5-dimethyl-5-(trifluoromethyl)tetrahydrofuran-2-carboxamide]	10 to 100
COC1(C)CN(CCOc2c([C@H]3[C@H](C(=O)Nc4ccnc(C(N)=O)c4)O[C@@](C)(C(F)(F)F)[C@H]3C)ccc(F)c2F)C1 [Compound 48, 4-((2R,3S,4S,5R)-3-(3,4-difluoro-2-(2-(3-methoxy-3-methylazetidin-1-yl)ethoxy)phenyl)-4,5-dimethyl-5-(trifluoromethyl)tetrahydrofuran-2-carboxamido)picolinamide]	10 to 100
C[C@H]1[C@@H](c2ccc(F)c(F)c2OC2CS(=O)(=O)C2)[C@H](C(=O)Nc2ccnc(C(N)=O)c2)O[C@@]1(C)C(F)(F)F [Compound 171, 4-((2R,3S,4S,5R)-3-(2-((1,1-dioxidothietan-3-yl)oxy)-3,4-difluorophenyl)-4,5-dimethyl-5-(trifluoromethyl)tetrahydrofuran-2-carboxamido)picolinamide]	100 to 1000
C[C@H]1[C@@H](c2ccc(F)c(F)c2OCC(C)(C)CO)[C@H](C(=O)Nc2ccnc(C(N)=O)c2)O[C@@]1(C)C(F)(F)F [Compound 71, 4-((2R,3S,4S,5R)-3-(3,4-difluoro-2-(3-hydroxy-2,2-dimethylpropoxy)phenyl)-4,5-dimethyl-5-(trifluoromethyl)tetrahydrofuran-2-carboxamido)picolinamide]	100 to 1000
